Test results as given in PubChem BioAssay (NCI).
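Assay format: 96-well plates, 48-hour exposure. TGI denotes the concentration required for complete inhibition of growth.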

How the values were obtained:
Assay in all cases: DTP human tumour cell line panel, 48 h
[1] = system: CCRF-CEM leukemia
[2] = system: HOP-62 NSCLC
[3] = system: MDA-MB-231 breast
[4] = system: RXF 393 renal
[5] = system: SF-268 CNS
[6] = system: SF-539 CNS
[7] = system: SN12C renal
[8] = system: SW-620 colon
[9] = system: TK-10 renal
[10] = system: MOLT-4 leukemia

SMILES | TGI [1] [µM] | TGI [2] [µM] | TGI [3] [µM] | TGI [4] [µM] | TGI [5] [µM] | TGI [6] [µM] | TGI [7] [µM] | TGI [8] [µM] | TGI [9] [µM] | TGI [10] [µM]
CN1C(=O)N(C)C2(CCN(CCCCCCF)CC2)C1=O | > 100 | > 100 | > 100 | > 100 | > 100 | > 100 | > 100 | > 100 | > 100 | –
C#CCOC(=O)C(N)CCSC (stereo not drawn) | > 100 | > 100 | > 100 | > 100 | > 100 | – | > 100 | > 100 | > 100 | > 100
COc1ccccc1NS(=O)(=O)c1ccc2ncn(NS(=O)(=O)c3ccc(Cl)cc3)c(=O)c2c1 | > 100 | > 100 | > 100 | – | > 100 | > 100 | > 100 | > 100 | > 100 | > 100
Cc1cc(C)c(N=Nc2c(O)c(S(=O)(=O)O)cc3cc(S(=O)(=O)O)ccc23)cc1C | > 100 | > 100 | > 100 | > 100 | > 100 | – | > 100 | > 100 | > 100 | > 100
O=C1C[C@H](c2ccc(O)c(O)c2)Oc2cc(O)cc(O)c21 | > 100 | > 100 | – | > 100 | > 100 | > 100 | > 100 | > 100 | > 100 | > 100
CC1(C)C2CCC(N)(C2)C1O (stereo not drawn) | > 100 | > 100 | – | > 100 | – | – | > 100 | > 100 | > 100 | > 100
O=C(NN=C1CCCCC1)NN=C1CCCCC1 | > 100 | > 100 | > 100 | > 100 | – | – | > 100 | > 100 | > 100 | > 100
CC(C)N(C(C)C)P(OCCC#N)OC1CC(n2cnc3c(=O)[nH]cnc32)OC1COC(=O)NCCCCCCNC(=O)OC(C)(C)c1ccc(-c2ccccc2)cc1 (stereo not drawn) | 43.8 | 44.2 | – | 74.3 | 57.5 | 44.3 | 54 | > 100 | > 100 | > 100
COc1cc2c(c(OC)c1OC)-c1ccc(SC)cc1C(=O)CC2 | > 100 | – | – | > 100 | – | < 0.01 | > 100 | > 100 | > 100 | > 100
CN(C)c1ccc(/C=c2/c3cc([N+](=O)[O-])ccc3n3c2cc(-c2ccccc2)[n+]3C)cc1 | 5.57 | 10.1 | 2.75 | – | 2.86 | 3.6 | – | 2.75 | 9.32 | 8.85
CC1(C)c2ccccc2C(O)C12CCC(=O)CC2 (stereo not drawn) | – | > 100 | > 100 | 30.8 | > 100 | > 100 | > 100 | > 100 | > 100 | –
COc1ccc2c(c1)-c1[nH]c3ccccc3c1CC2 | 50.8 | 30.8 | 33.8 | – | 28.4 | 31.2 | 29.9 | 31.6 | 31.7 | 36.2
CN1B(c2ccccc2)N(C)C(=O)N(C)C1=O | > 100 | – | – | > 100 | > 100 | > 100 | > 100 | > 100 | > 100 | –
Brc1cccc[n+]1-c1ccc2cc(-[n+]3ccccc3Br)ccc2c1 | > 100 | 75.6 | 85.6 | 87.6 | 90.4 | 40.1 | > 100 | > 100 | 37.6 | –
CN(C)CCn1nc(N)c2nc3cc(C(F)(F)F)ccc3nc21 | > 100 | > 100 | > 100 | > 100 | > 100 | – | > 100 | > 100 | > 100 | > 100
COC[C@@H](Cc1ccc(OC)c(OC)c1)[C@@H](COC)Cc1ccc(OC)c(OC)c1 | > 100 | – | – | > 100 | > 100 | > 100 | > 100 | > 100 | > 100 | > 100
Cc1cc(O)c(C(C)C)cc1N=Cc1ccccc1O | 0.0897 | 26.1 | 3.59 | 2.64 | 21.4 | 49.3 | 12.2 | > 20.4 | 26.9 | –
